ChEMBL document CHEMBL5370585, “Exploration and Biological Evaluation of 1,3-Diamino-7H-pyrrol[3,2-f]quinazoline Derivatives as Dihydrofolate Reductase Inhibitors” (J Med Chem, 2023)
Converted amounts (≈) assume the structure as drawn. The source made the active and inactive calls. The rule behind the calls is not given here.

Tests used:
Staphylococcus aureus [1] = test: Antibacterial activity against Staphylococcus aureus ATCC 29213 incubated for 16 to 18 hrs by CLSI based broth dilution method; assay type: functional; settings: time 16-18 hrs
Staphylococcus aureus [2] = test: Antibacterial activity against methicillin-resistant Staphylococcus aureus ATCC 43300 incubated for 16 to 18 hrs by CLSI based broth dilution method; assay type: functional; settings: time 16-18 hrs
[3] = test system: Staphylococcus epidermidis; test: Antibacterial activity against Staphylococcus epidermidis ATCC 12228 incubated for 16 to 18 hrs by CLSI based broth dilution method; assay type: functional; settings: time 16-18 hrs
Acinetobacter baumannii [4] = test: Antibacterial activity against Acinetobacter baumannii ATCC 19606 incubated for 16 to 18 hrs by CLSI based broth dilution method; assay type: functional; settings: time 16-18 hrs
Enterococcus faecalis [5] = test: Antibacterial activity against Enterococcus faecalis ATCC 29212 incubated for 16 to 18 hrs by CLSI based broth dilution method; assay type: functional; settings: time 16-18 hrs
Escherichia coli [6] = test: Antibacterial activity against Escherichia coli ATCC 25922 incubated for 16 to 18 hrs by CLSI based broth dilution method; assay type: functional; settings: time 16-18 hrs
Escherichia coli [7] = test: Antibacterial activity against Escherichia coli ATCC 25922 assessed as inhibition of bacterial growth at upto 8 times MIC measured upto 28 hrs by time kill curve assay; assay type: functional, organism-based
Staphylococcus aureus [8] = test: Antibacterial activity against methicillin-resistant Staphylococcus aureus ATCC 43300 assessed as inhibition of bacterial growth at upto 8 times MIC measured upto 28 hrs by time kill curve assay; assay type: functional, organism-based
Staphylococcus aureus [9] = test: Antibacterial activity against methicillin-sensitive Staphylococcus aureus 15-1 incubated for 16 to 18 hrs by CLSI based broth dilution method; assay type: functional; settings: time 16-18 hrs
Staphylococcus aureus [10] = test: Antibacterial activity against methicillin-sensitive Staphylococcus aureus 15-2 incubated for 16 to 18 hrs by CLSI based broth dilution method; assay type: functional; settings: time 16-18 hrs
Staphylococcus aureus [11] = test: Antibacterial activity against methicillin-sensitive Staphylococcus aureus ATCC 29213 incubated for 16 to 18 hrs by CLSI based broth dilution method; assay type: functional; settings: time 16-18 hrs
Staphylococcus aureus [12] = test: Antibacterial activity against methicillin-sensitive Staphylococcus aureus ATCC 25923 incubated for 16 to 18 hrs by CLSI based broth dilution method; assay type: functional; settings: time 16-18 hrs
Staphylococcus aureus [13] = test: Antibacterial activity against methicillin-resistant Staphylococcus aureus ATCC 33591 incubated for 16 to 18 hrs by CLSI based broth dilution method; assay type: functional; settings: time 16-18 hrs
Staphylococcus aureus [14] = test: Antibacterial activity against vancomycin intermediate Staphylococcus aureus ATCC 700788 incubated for 16 to 18 hrs by CLSI based broth dilution method; assay type: functional; settings: time 16-18 hrs
Staphylococcus aureus [15] = test: Antibacterial activity against vancomycin intermediate Staphylococcus aureus ATCC 700699 incubated for 16 to 18 hrs by CLSI based broth dilution method; assay type: functional; settings: time 16-18 hrs
Enterococcus faecalis [16] = test: Antibacterial activity against Enterococcus faecalis EFA19-1 incubated for 16 to 18 hrs by CLSI based broth dilution method; assay type: functional; settings: time 16-18 hrs
Enterococcus faecalis [17] = test: Antibacterial activity against Enterococcus faecalis EFA19-2 incubated for 16 to 18 hrs by CLSI based broth dilution method; assay type: functional; settings: time 16-18 hrs
Enterococcus = test: Antibacterial activity against Vancomycin-resistant Enterococcus ATCC 51575 incubated for 16 to 18 hrs by CLSI based broth dilution method; assay type: functional; settings: time 16-18 hrs
Escherichia coli [18] = test: Antibacterial activity against Escherichia coli ATCC BAA-2340 incubated for 16 to 18 hrs by CLSI based broth dilution method; assay type: functional; settings: time 16-18 hrs
Escherichia coli [19] = test: Antibacterial activity against Escherichia coli ECO 15-1 incubated for 16 to 18 hrs by CLSI based broth dilution method; assay type: functional; settings: time 16-18 hrs
Klebsiella pneumoniae [20] = test: Antibacterial activity against Klebsiella pneumoniae 15-1 assessed as reduction in microbial growth incubated for 16 to 18 hrs by CLSI based broth dilution method; assay type: functional; settings: time 16-18 hrs
Klebsiella pneumoniae [21] = test: Antibacterial activity against Klebsiella pneumoniae ATCC 700603 assessed as reduction in microbial growth incubated for 16 to 18 hrs by CLSI based broth dilution method; assay type: functional; settings: time 16-18 hrs
Acinetobacter baumannii [22] = test: Antibacterial activity against Acinetobacter baumannii ATCC 19606 assessed as reduction in microbial growth incubated for 16 to 18 hrs by CLSI based broth dilution method; assay type: functional; settings: time 16-18 hrs
Acinetobacter baumannii [23] = test: Antibacterial activity against Acinetobacter baumannii 20-1 incubated for 16 to 18 hrs by CLSI based broth dilution method; assay type: functional; settings: time 16-18 hrs
Acinetobacter baumannii [24] = test: Antibacterial activity against Acinetobacter baumannii 20-2 incubated for 16 to 18 hrs by CLSI based broth dilution method; assay type: functional; settings: time 16-18 hrs
Pseudomonas aeruginosa = test: Antibacterial activity against Pseudomonas aeruginosa ATCC 27853 incubated for 16 to 18 hrs by CLSI based broth dilution method; assay type: functional; settings: time 16-18 hrs
Staphylococcus aureus [25] = test: Antibacterial activity against Staphylococcus aureus ATCC 29213 incubated for 16 to 18 hrs in absence of human plasma by CLSI based broth dilution method; assay type: functional; settings: time 16-18 hrs
Staphylococcus aureus [26] = test: Antibacterial activity against Staphylococcus aureus ATCC 29213 incubated for 16 to 18 hrs in presence of human plasma by CLSI based broth dilution method; assay type: functional; settings: time 16-18 hrs
Staphylococcus aureus [27] = test: Antibacterial activity against methicillin-resistant Staphylococcus aureus ATCC 43300 incubated for 16 to 18 hrs in absence of human plasma by CLSI based broth dilution method; assay type: functional; settings: time 16-18 hrs
Staphylococcus aureus [28] = test: Antibacterial activity against methicillin-resistant Staphylococcus aureus ATCC 43300 incubated for 16 to 18 hrs in presence of human plasma by CLSI based broth dilution method; assay type: functional; settings: time 16-18 hrs
Escherichia coli [29] = test: Antibacterial activity against Escherichia coli ATCC 25922 incubated for 16 to 18 hrs in absence of human plasma by CLSI based broth dilution method; assay type: functional; settings: time 16-18 hrs
Escherichia coli [30] = test: Antibacterial activity against Escherichia coli ATCC 25922 incubated for 16 to 18 hrs in presence of human plasma by CLSI based broth dilution method; assay type: functional; settings: time 16-18 hrs
[31] = biological target: T1, Dihydrofolate reductase (Homo sapiens) (UniProt P00374); test: Inhibition of human DHFR at 1 uM incubated for 10 mins in presence of NADPH by colorimetry based analysis relative to control
T1 sequence (whole entry): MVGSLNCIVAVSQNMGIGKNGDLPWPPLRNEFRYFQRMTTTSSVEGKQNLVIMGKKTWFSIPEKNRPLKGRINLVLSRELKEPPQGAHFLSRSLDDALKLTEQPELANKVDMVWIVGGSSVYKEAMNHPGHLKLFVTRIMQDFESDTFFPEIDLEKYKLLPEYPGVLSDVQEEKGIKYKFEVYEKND

MCF7 = test: Cytotoxicity against human MCF7 cells measured after 72 hrs by MTT assay; assay type: functional, cell-based; settings: MCF7, 72 h
HGC-27 = test: Cytotoxicity against human HGC-27 cells measured after 72 hrs by MTT assay; assay type: functional, cell-based; settings: HGC-27, 72 h
HCT-116 = test: Cytotoxicity against human HCT-116 cells measured after 72 hrs by MTT assay; assay type: functional, cell-based; settings: HCT-116, 72 h
HepG2 = test: Cytotoxicity against human HepG2 cells measured after 72 hrs by MTT assay; assay type: functional, cell-based; settings: HepG2, 72 h
EMT6 [32] = test: Antitumor activity against mouse EMT6 cells xenografted in ip dosed BALB/c mouse model assessed as delay in tumor progression administered every 3 days for 14 consecutive days; assay type: functional, organism-based; settings: time 14.0 day
[33] = Toxicity in BALB/c mouse xenografted with mouse EMT6 cells at 5 mg/kg, ip administered every 3 days for 14 consecutive days; assay type: organism-based; settings: in vivo, 336 h, time 14 day
[34] = Toxicity in BALB/c mouse xenografted with mouse EMT6 cells assessed as effect on body weight at 5 mg/kg, ip measured on day 1 (reference value: 18.5 +/-0.5g); assay type: organism-based; settings: in vivo, 24 h, time 1 day
[35] = Toxicity in BALB/c mouse xenografted with mouse EMT6 cells assessed as effect on body weight at 10 mg/kg, ip measured on day 1 (reference value: 18.5 +/-0.5g); assay type: organism-based; settings: in vivo, 24 h, time 1 day
[36] = Toxicity in BALB/c mouse xenografted with mouse EMT6 cells assessed as effect on body weight at 5 mg/kg, ip measured on day 14 (reference value: 21.6 +/-0.6g); assay type: organism-based; settings: in vivo, 336 h, time 14 day
[37] = Toxicity in BALB/c mouse xenografted with mouse EMT6 cells assessed as effect on body weight at 10 mg/kg, ip measured on day 14 (reference value: 21.6 +/-0.6g); assay type: organism-based; settings: in vivo, 336 h, time 14 day
EMT6 [38] = test: Antitumor activity against mouse EMT6 cells xenografted in BALB/c mouse model assessed as tumor weight at 5 mg/kg,ip administered every 3 days for 14 consecutive days (reference value: 1.53 +/-0.26g); assay type: functional; settings: time 14 day
EMT6 [39] = test: Antitumor activity against mouse EMT6 cells xenografted in BALB/c mouse model assessed as tumor weight at 10 mg/kg,ip administered every 3 days for 14 consecutive days (reference value: 1.53 +/-0.26g); assay type: functional; settings: time 14 day
EMT6 [40] = test: Antitumor activity against mouse EMT6 cells xenografted in BALB/c mouse model assessed as tumor growth inhibition at 5 mg/kg,ip administered every 3 days for 14 consecutive days relative to control; assay type: functional; design: scale not given: the % may be the effect or the level left; settings: time 14 day
EMT6 [41] = test: Antitumor activity against mouse EMT6 cells xenografted in BALB/c mouse model assessed as tumor growth inhibition at 10 mg/kg,ip administered every 3 days for 14 consecutive days relative to control; assay type: functional; design: scale not given: the % may be the effect or the level left; settings: time 14 day

## Nc1nc(N)c2c(ccc3c2ccn3Cc2nc3ccccc3s2)n1
Staphylococcus aureus [1]
  MIC: 0.06 mg/L (≈ 0.173 µM)
Staphylococcus aureus [2]
  MIC: 0.016 mg/L (≈ 0.0462 µM)
[3]
  MIC: ≤ 0.004 mg/L
Acinetobacter baumannii [4]
  MIC: 1 mg/L (≈ 2.89 µM)
Enterococcus faecalis [5]
  MIC: ≤ 0.004 mg/L
Escherichia coli [6]
  MIC: 0.03 mg/L (≈ 0.0866 µM)
Escherichia coli [7]
  Activity: Active
Staphylococcus aureus [8]
  Activity: Active
Staphylococcus aureus [9]
  MIC: ≤ 0.03 mg/L
Staphylococcus aureus [10]
  MIC: ≤ 0.03 mg/L
Staphylococcus aureus [11]
  MIC: ≤ 0.03 mg/L
Staphylococcus aureus [12]
  MIC: 0.06 mg/L (≈ 0.173 µM)
Staphylococcus aureus [13]
  MIC: ≤ 0.03 mg/L
Staphylococcus aureus [14]
  MIC: ≤ 0.03 mg/L
Staphylococcus aureus [15]
  MIC: 0.25 mg/L (≈ 0.722 µM)
Enterococcus faecalis [16]
  MIC: ≤ 0.03 mg/L
Enterococcus faecalis [17]
  MIC: ≤ 0.03 mg/L
Enterococcus
  MIC: ≤ 0.03 mg/L
Escherichia coli [18]
  MIC: > 64 mg/L
Escherichia coli [19]
  MIC: > 64 mg/L
Klebsiella pneumoniae [20]
  MIC: 2 mg/L
Klebsiella pneumoniae [21]
  MIC: 2 mg/L
Acinetobacter baumannii [22]
  MIC: 1 mg/L
Acinetobacter baumannii [23]
  MIC: 16 mg/L (≈ 46.2 µM)
Acinetobacter baumannii [24]
  MIC: 1 mg/L (≈ 2.89 µM)
Pseudomonas aeruginosa
  MIC: > 64 mg/L
Staphylococcus aureus [25]
  MIC: 0.06 mg/L (≈ 0.173 µM)
Staphylococcus aureus [26]
  MIC: 2 mg/L
Staphylococcus aureus [27]
  MIC: 0.016 mg/L (≈ 0.0462 µM)
Staphylococcus aureus [28]
  MIC: 1 mg/L
Escherichia coli [29]
  MIC: 0.03 mg/L (≈ 0.0866 µM)
Escherichia coli [30]
  MIC: 1 mg/L
[31]
  inhibition: 96%
MCF7
  IC50: 0.11 µM
HGC-27
  IC50: 0.001 µM
HCT-116
  IC50: 0.002 µM
HepG2
  IC50: 0.034 µM
EMT6 [32]
  Activity: Dose-Dependent Effect
[33]
  Activity: Non-Toxic
[34]
  Activity: 18.5 g
[35]
  Activity: 18.6 g
[36]
  Activity: 15.1 g
[37]
  Activity: 14.3 g
EMT6 [38]
  Activity: 0.41 g
EMT6 [39]
  Activity: 0.44 g
EMT6 [40]
  Activity: 72.9%
EMT6 [41]
  Activity: 71.1%
